Experimental data reported in patent publication US20060074018A1, “Methods of diagnosing & treating diabetes and insulin resistance” (Metabolex Inc, priority 2002, published 2006).

How the values were obtained:
Assay type in all cases: in vivo, human
[1] = system: connective tissue growth factor (CTGF) mRNA; test: Gene expression profiling of muscle samples on custom Affymetrix chips, probe set mbxhummus 24330; conditions: muscle of diabetics, Clamp sample
Text: (§1) The molecular mechanism by which thiazolidinediones (TZDs) cause an increase in peripheral insulin sensitivity was studied. Genes in muscle or fat whose expression is altered by TZDs may lie on a pathway leading from TZD treatment to increased insulin sensitivity. Modulators of such genes can elicit the same effect as TZD treatment. Moreover, such modulators can lack some of the side effects of TZD. The majority of glucose disposal occurs in muscle. For this reason, gene expression profiling in human muscle from diabetics treated with troglitazone was used to identify genes important for TZD action and therefore treatment of diabetes and insulin resistance. […] The gene expression profile for each individual was determined by hybridization of cRNA to custom synthesized Affymetrix chips. Gene expression profile differences were calculated as follows. […] The raw data was analyzed by a statistical test to remove ‘outliers’. The mean ‘average difference score’ was then calculated from the average difference scores for all individuals in a particular treatment group. Genes were determined to be changed in condition 1 (such as basal diabetics before trogliazone (tro) treatment) versus condition 2 (such as basal diabetics after troglitazone treatment) by calculating the Students t test statistic between the two conditions and selecting those with t less than or equal to 0.05. […]

[2] = system: TIEG mRNA; test: Gene expression profiling of muscle samples on custom Affymetrix chips, probe set mbxhummus23808; conditions: muscle of diabetics, Basal sample
Text: as §1

[3] = system: CTGF expression; test: Real time PCR analysis of muscle samples, CTGF; conditions: mean post-Tro/mean pre-Tro
Description: (§2) The gene expression changes observed in the human muscle samples derived from lean and diabetic individuals or from diabetic individuals post-Troglitazone treatment, were further confirmed by the use of real-time quantitative PCR. A combination of specific PCR primers and a Taqman probe were designed to detect and quantify expression levels for each gene. Relative gene expression levels were determined in this manner in each patient and the mean expression level in either the lean or diabetic patient population was then calculated.

[4] = system: TIEG expression; test: Real time PCR analysis of muscle samples, TIEG; conditions: mean post-Tro/mean pre-Tro
Description: as §2

[5] = 3 months of Troglitazone treatment
[6] = after 3 months of Troglitazone treatment, mean average difference score

## Cc1c(C)c2c(c(C)c1O)CCC(C)(COc1ccc(CC3SC(=O)NC3=O)cc1)O2 (stereo not drawn) [Troglitazone, troglitazone]
[1]; [5]
  Fold Change diabetic post tro/diabetic pre tro (Connective Tissue Growth Factor): 0.07
[1]; [6]
  Diabetic Post-Trog Mean Expr (Connective Tissue Growth Factor): 29
[2]; [5]
  Fold Change diabetic post-trog/diabetic pre-trog (TIEG): 0.65
[2]; [6]
  Diabetic Post-Trog Mean Expr (TIEG): 2634
[3]
  Expression Fold change, CTGF, Diabetics + Tro/Diabetics − Tro: 0.35
[4]
  Expression Fold change, TIEG, Diabetics + Tro/Diabetics − Tro: 0.69
